Values after ≈ are worked out from the molar mass of the structure shown.
Columns and labels:
[1] = Permeability across basolateral side to apical side of membrane in human Caco2 cells; type: ADME, cell-based; details: Caco-2, read-out: permeability
[2] = Clearance in human liver microsomes; type: ADME, Microsome; details: read-out: CLH
[3] = Thermodynamic solubility of compound at pH 7.4; type: physicochemical; details: buffer, read-out: Therm_solubility
[4] = Clearance in mouse liver microsomes; type: ADME, Microsome; details: read-out: CLH
[5] = Permeability across apical side to basolateral side of membrane in human Caco2 cells; type: ADME, cell-based; details: Caco-2, read-out: permeability
[6] = AUC (0 to infinity) in mouse at 5 mg/kg, po; type: ADME, organism-based; design: dose 5 mg/kg, route oral, time infinity; details: in vivo
[7] = AUC (0 to 8 hrs) in mouse at 5 mg/kg, po measured up to 8 hrs; type: ADME, organism-based; design: dose 5 mg/kg, time < 8 hr, route oral; details: in vivo
[8] = Clearance in mouse at 1 mg/kg, iv; type: ADME, organism-based; details: in vivo
[9] = AUC (0 to 8 hrs) in mouse at 1 mg/kg, iv measured up to 8 hrs; type: ADME, organism-based; design: time < 8 hr, dose 1 mg/kg, route intravenous; details: in vivo
[10] = AUC (0 to infinity) in mouse at 1 mg/kg, iv; type: ADME, organism-based; design: dose 1 mg/kg, time infinity, route intravenous; details: in vivo
[11] = Terminal elimination half-life in mouse at 5 mg/kg, po; type: ADME, organism-based; details: in vivo, read-out: beta t1/2 (converted)
[12] = Tmax in mouse at 5 mg/kg, po; type: ADME, organism-based; details: in vivo
[13] = Clearance in mouse at 5 mg/kg, po; type: ADME, organism-based; details: in vivo
[14] = Apparent volume of distribution in mouse at 5 mg/kg, po; type: ADME, organism-based; details: in vivo
[15] = Apparent volume of distribution in mouse at 1 mg/kg, iv; type: ADME, organism-based; details: in vivo, read-out: Vz
[16] = Oral bioavailability in mouse at 5 mg/kg; type: ADME, organism-based; details: in vivo
[17] = Terminal elimination half life in mouse at 1 mg/kg, iv; type: ADME, organism-based; details: in vivo, read-out: beta t1/2 (converted)
[18] = Cmax in mouse at 5 mg/kg, po measured after 10 mins; type: ADME, organism-based; design: dose 5 mg/kg, route oral; details: in vivo
[19] = Initial plasma concentration in mouse at 1 mg/kg, iv; type: ADME, organism-based
[20] = Cmax in mouse at 5 mg/kg, po measured after 0.5 hrs; type: ADME, organism-based; design: dose 5 mg/kg, route oral; details: in vivo

SMILES	Papp B→A [1] [×10⁻⁶ cm/s]	microsomal CLint [2] [µL/min/mg]	solubility thermodynamic [3] [µg/mL]	microsomal CLint [4] [µL/min/mg]	Papp A→B [5] [×10⁻⁶ cm/s]	AUC(0-inf) [6] [ng·h/mL]	AUC(0-t) at 8 h [7] [ng·h/mL]	clearance [8] [mL/min/kg]	AUC(0-t) at 8 h [9] [ng·h/mL]	AUC(0-inf) [10] [ng·h/mL]	half-life [11] [h]	Tmax [12] [h]	CL/F [13] [mL/min/kg]	Vz [14] [L/kg]	Vd [15] [L/kg]	bioavailability [16] [%]	half-life [17] [h]	Cmax [18] [ng/mL]	C0 [19] [ng/mL]	Cmax [20] [ng/mL]
Cc1c(-c2cncc(-c3ccc(C(N)=O)c(OC(C)C)c3)c2)cnn1C	21	7.9	7.3 (≈ 20.8 µM)	25.1	27	–	–	–	–	–	–	–	–	–	–	–	–	–	–	–
Cc1n[nH]c(C)c1-c1cncc(-c2ccc(C(N)=O)c(OC(C)C)c2)c1	41	–	10 (≈ 28.5 µM)	62	6.2	–	–	–	–	–	–	–	–	–	–	–	–	–	–	–
CC(C)Oc1cc(-c2cccnc2)ccc1C(N)=O	20	5.8	45 (≈ 176 µM)	9.4	32	494	488	100	160	166	1.6	0.17	168	23	30	61	3.4	615	678	–
Cc1[nH]ncc1-c1cncc(-c2ccc(C(N)=O)c(OC(C)C)c2)c1	33	18	11 (≈ 32.7 µM)	251	8.3	–	–	–	–	–	–	–	–	–	–	–	–	–	–	–
CC(C)Oc1cc(-c2cncc(-c3cnn(C4COC4)c3)c2)ccc1C(N)=O	25	< 10	28 (≈ 74 µM)	3.1	10	2360	2080	28.3	568	579	2.8	0.5	35	8.7	5.5	73	2.2	–	–	658

Source: ChEMBL document CHEMBL4376877, “Stepwise Evolution of Fragment Hits against MAPK Interacting Kinases 1 and 2” (J Med Chem, 2020)
